Measured values published in ChEMBL document CHEMBL1201862, “PubChem BioAssay data set” (2004).
Active and inactive are the calls of the source.

Experiments:
cells [1] = format: functional, cell-based
cells [2] = format: functional, cell-based; remark: listed apart in the source
[3] = molecular target: Glucose-6-phosphate 1-dehydrogenase (Homo sapiens, UniProt P11413); experiment: inhibition of Homo sapiens G6PD, dose series – biochemical, fluorescence, selectivity assay for P. falciparum G6PD inhibitor project, dose response (AID 504792); format: functional
Glucose-6-phosphate 1-dehydrogenase, sequence (P11413 whole entry): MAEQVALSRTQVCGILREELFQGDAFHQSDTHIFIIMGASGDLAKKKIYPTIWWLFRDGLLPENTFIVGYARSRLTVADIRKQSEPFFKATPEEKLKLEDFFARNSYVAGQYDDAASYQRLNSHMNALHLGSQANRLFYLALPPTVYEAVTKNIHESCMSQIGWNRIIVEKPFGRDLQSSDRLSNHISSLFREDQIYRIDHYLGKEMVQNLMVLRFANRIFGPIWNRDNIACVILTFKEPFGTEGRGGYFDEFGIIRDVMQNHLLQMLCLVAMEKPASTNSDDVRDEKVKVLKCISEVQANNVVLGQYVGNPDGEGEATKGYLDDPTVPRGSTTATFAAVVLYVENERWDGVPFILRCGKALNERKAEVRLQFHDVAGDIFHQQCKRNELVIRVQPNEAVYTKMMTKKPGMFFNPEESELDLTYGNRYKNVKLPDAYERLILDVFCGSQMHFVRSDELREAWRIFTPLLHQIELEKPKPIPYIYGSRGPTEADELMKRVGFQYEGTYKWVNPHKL

[4] = molecular target: T1, Microphthalmia-associated transcription factor (Homo sapiens, UniProt O75030); experiment: reducers of TRPM1 reporter luminescence, concentration series – cell-based, SK-MEL-5, cherry-picked, set 3, MITF inhibitor project, dose response (AID 493073); format: functional;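 also: SK-MEL-5 melanoma cells with luciferase driven by the MITF target TRPM1 promoter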
T1 sequence (O75030 whole entry): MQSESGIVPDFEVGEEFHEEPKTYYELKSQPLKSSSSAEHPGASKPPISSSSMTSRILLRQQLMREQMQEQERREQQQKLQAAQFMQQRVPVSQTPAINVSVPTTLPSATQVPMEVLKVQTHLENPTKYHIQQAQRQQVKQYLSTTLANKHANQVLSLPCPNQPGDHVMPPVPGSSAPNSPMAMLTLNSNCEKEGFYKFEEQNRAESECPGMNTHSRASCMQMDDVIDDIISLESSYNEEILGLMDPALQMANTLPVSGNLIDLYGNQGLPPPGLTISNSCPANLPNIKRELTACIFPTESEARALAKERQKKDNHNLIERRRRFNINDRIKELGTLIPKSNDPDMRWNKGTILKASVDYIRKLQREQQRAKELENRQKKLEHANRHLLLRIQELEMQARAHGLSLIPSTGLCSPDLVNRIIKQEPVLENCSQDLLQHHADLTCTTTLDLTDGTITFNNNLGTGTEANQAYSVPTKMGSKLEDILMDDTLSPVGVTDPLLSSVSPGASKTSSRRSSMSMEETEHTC

[5] = molecular target: T2, Trace amine-associated receptor 1 (Homo sapiens, UniProt Q96RJ0); experiment: Fluorescence-based cell-based high throughput dose response assay to identify agonists of the human trace amine associated receptor 1 (TAAR1).; format: functional
T2 sequence (Q96RJ0 whole entry): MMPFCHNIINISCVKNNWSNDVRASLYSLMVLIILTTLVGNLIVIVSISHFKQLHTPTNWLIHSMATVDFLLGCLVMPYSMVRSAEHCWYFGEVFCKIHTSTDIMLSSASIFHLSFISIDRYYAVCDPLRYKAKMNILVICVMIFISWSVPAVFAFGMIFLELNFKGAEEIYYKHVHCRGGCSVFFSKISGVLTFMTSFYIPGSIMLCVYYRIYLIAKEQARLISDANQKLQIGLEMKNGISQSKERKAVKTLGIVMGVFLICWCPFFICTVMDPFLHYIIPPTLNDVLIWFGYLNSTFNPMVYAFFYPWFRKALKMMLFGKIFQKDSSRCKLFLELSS

[6] = molecular target: T2, Trace amine-associated receptor 1; experiment: Counterscreen for agonists of the human trace amine associated receptor 1 (hTAAR1): Fluorescence-based cell-based high throughput dose response assay to identify hTAAR1 agonist that also desensitize TAAR1 receptor response.; format: functional
Prothrombin = Prothrombin (Homo sapiens, UniProt P00734); experiment: Thrombin 1536 HTS Dose Response Confirmation. [Related pubchem assays: 1046 (Thrombin 1536 HTS; hits were confirmed in this assay)]; format: functional
[7] = P. falciparum Dd2 growth inhibitors, dose response, SYBR Green, cherry-picked samples (AID 1159567); format: functional, cell-based
[8] = Luminescence Cell-Based Dose Retest to Confirm Inhibitors of Cancer Stem Cells. [Related pubchem assays (depositor defined):AID2717, AID2721]; format: functional; conditions: Homo sapiens
[9] = NIH3T3 cell viability loss – ATP luminescence, mouse fibroblasts, counter-screen, dose response (AID 2010); format: functional, cell-based;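 also: cells exposed to compound for about 90 hours before reading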
[10] = Trypanosoma cruzi growth suppression in host cells – NIH3T3 host cells, beta-gal luminescence, confirmation (AID 2044); format: functional, cell-based;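 also: intracellular parasites grown in NIH/3T3 mouse fibroblasts as host cells; luminescent beta-galactosidase reporter signal from transgenic T. cruzi replicating inside host cells; inhibitors lower the luminescence signal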
Protein skinhead-1 = molecular target: T3, Protein skinhead-1 (Caenorhabditis elegans, UniProt P34707); format: functional
T3 sequence (P34707 whole entry): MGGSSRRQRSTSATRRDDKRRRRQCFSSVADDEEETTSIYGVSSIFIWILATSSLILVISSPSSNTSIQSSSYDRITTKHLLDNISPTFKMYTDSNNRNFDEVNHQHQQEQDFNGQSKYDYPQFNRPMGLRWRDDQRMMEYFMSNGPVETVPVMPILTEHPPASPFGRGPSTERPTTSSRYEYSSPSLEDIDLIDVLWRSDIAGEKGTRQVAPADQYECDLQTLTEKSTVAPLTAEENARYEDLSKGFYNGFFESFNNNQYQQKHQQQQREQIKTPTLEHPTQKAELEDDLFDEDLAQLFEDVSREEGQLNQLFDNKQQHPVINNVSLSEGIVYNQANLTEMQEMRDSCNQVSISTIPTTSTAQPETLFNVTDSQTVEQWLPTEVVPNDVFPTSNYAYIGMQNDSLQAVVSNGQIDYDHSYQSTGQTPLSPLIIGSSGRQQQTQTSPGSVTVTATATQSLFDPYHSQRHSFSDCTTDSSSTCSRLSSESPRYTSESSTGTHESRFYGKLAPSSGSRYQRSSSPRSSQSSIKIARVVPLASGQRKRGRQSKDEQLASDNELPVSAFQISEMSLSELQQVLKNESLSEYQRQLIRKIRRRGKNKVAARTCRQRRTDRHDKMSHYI

P388/ADR = experiment: cells; format: functional; conditions: Mus musculus
P388 = experiment: cells; format: functional; conditions: Mus musculus
[11] = Luminescence Cell-Based Dose Confirmation HTS to Identify Inhibitors of Platelet Dense Granule Release. [Related pubchem assays: 1663 (Primary HTS), 1678 (Summary of Project)]; format: functional
[12] = molecular target: Luciferin 4-monooxygenase (Photinus pyralis, UniProt P08659); experiment: inhibition of purified Photinus pyralis luciferase – biochemical, luminescence, dose response (AID 1891)
Luciferin 4-monooxygenase, sequence (P08659 whole entry): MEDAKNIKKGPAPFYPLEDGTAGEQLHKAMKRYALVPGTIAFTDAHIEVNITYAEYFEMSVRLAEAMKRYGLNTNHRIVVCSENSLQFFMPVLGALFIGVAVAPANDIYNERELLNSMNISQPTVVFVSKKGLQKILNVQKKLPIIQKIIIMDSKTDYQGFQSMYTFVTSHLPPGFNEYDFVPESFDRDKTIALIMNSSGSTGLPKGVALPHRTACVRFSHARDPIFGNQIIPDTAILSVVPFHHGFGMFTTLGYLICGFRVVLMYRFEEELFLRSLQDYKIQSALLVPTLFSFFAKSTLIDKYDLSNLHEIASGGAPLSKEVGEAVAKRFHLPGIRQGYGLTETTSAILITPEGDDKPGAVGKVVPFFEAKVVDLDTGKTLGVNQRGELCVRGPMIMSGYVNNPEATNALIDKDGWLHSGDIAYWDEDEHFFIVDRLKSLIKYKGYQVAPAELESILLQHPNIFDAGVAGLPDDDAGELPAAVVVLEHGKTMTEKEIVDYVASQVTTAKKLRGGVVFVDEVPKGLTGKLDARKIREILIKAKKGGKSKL

cells [13] = format: functional
[14] = molecular target: T4, Heat shock factor protein 1 (Mus musculus, UniProt P38532); experiment: decrease of HSF1-responsive luciferase luminescence – cell-based, NIH3T3, dose retest, confirmation (AID 2382); format: functional;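 also: NIH3T3 fibroblasts with HSF1-driven luciferase reporter stressed by proteasome inhibitor MG132; luminescence from HSF1-driven luciferase expression after 8 hours of MG132 stress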
T4 sequence (P38532 whole entry): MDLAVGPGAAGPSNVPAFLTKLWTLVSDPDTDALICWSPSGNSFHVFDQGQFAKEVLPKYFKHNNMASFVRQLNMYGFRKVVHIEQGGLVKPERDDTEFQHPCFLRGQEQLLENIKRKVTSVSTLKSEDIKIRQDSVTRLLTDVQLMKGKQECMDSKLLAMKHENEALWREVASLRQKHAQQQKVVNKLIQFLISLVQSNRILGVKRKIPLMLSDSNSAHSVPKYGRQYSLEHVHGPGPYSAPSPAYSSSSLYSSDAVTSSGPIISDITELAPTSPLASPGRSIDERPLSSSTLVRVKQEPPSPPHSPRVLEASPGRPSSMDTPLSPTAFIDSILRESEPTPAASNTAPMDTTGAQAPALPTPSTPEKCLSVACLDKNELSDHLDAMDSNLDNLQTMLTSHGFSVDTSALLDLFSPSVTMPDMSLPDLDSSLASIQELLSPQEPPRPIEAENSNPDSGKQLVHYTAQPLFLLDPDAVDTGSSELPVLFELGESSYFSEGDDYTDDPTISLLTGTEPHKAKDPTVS

SN12K1 = experiment: cells; format: functional; conditions: Homo sapiens

## CC(C)=N/N=C(\N)SCc1ccccc1
Cells [1]
  IC50: > 29.9 µM (inactive)
Cells [2]
  EC50: > 29.9 µM (inactive)

## COc1ccc(C2(CNC(=O)c3ccc(OC)c([N+](=O)[O-])c3)CCCCC2)cc1OC
[3]
  IC50: 60.7 µM (inactive)

## Cc1cnc(NC(=O)c2nn(C)cc2[N+](=O)[O-])s1
[4]
  AC50: 20.6 µM (active)

## O=C(N[C@H](C(=O)N1CCC[C@H]1C(=O)NCCc1ccccc1Cl)C1CCCCC1)c1ccccc1
Cells [1]
  IC50: > 29.9 µM (inactive)
[5]
  EC50: 5.2 µM (active)
[6]
  IC50: 5.04 µM (active)
Cells [2]
  EC50: > 29.9 µM (inactive)

## CC(C)(C)NC(=O)c1cc([N+](=O)[O-])ccc1N1CCCCC1
Prothrombin
  IC50: > 50 µM (not active)

## COc1ccc(CN2C[C@@H](C)[C@@H](OC)CN(C)C(=O)c3cc(NC(=O)c4nc5ccccc5s4)ccc3OC[C@H]2C)cc1
[7]
  AC50: 6.65 µM (active)

## Oc1nncc(N/N=C/c2ccccc2)c1Cl
Cells [1]
  IC50: > 29.9 µM (inactive)
[5]
  EC50: 0.29 µM (active)
[6]
  IC50: 0.981 µM (active)
Cells [2]
  EC50: > 29.9 µM (inactive)

## Cc1ccc2sc(N(CCCN(C)C)C(=O)c3ccc(S(=O)(=O)N(C)C4CCCCC4)cc3)nc2c1C
[8]
  AC50: 3.72 µM (active)
[9]
  EC50: 10.3 µM (active)
[4]
  AC50: 18 µM (active)
[10]
  EC50: 0.148 µM (active)

## Brc1ccc(-c2csc(-c3ccncc3)n2)cc1
Protein skinhead-1
  IC50: 51.6 µM (inactive)

## CCNC1=NN=C(c2cc(C)n(CCc3ccccc3)c2C)CS1
Cells [1]
  IC50: > 29.9 µM (inactive)
[5]
  EC50: 0.373 µM (active)
[6]
  IC50: 1.06 µM (active)
Cells [2]
  EC50: > 29.9 µM (inactive)

## COc1ccc(CC(=O)Nc2cc(S(=O)(=O)N3CCOCC3)ccc2N2CCOCC2)cc1
Protein skinhead-1
  IC50: > 100 µM (inactive)

## O=C(NC(c1ccc(-c2ccccc2)cc1)c1cnccn1)C1CCN(Cc2cccs2)CC1 (stereo unspecified)
Protein skinhead-1
  IC50: > 100 µM (inactive)

## COC(=O)[C@@]12C[C@@H](CC(=O)NCCc3ccccc3OC)C(=O)N(Cc3ccc4c(c3)OCO4)C1=CCC(C)(C)C2
Cells [1]
  IC50: > 29.9 µM (inactive)
[5]
  EC50: 2.4 µM (active)
[6]
  IC50: 6.93 µM (active)
Cells [2]
  EC50: > 29.9 µM (inactive)

## CC[C@@H](C)[C@H]([C@H](CC(=O)N1CCC[C@@H]1[C@@H](OC)[C@H](C)C(=O)N[C@H](Cc1ccccc1)c1nccs1)OC)N(C)C(=O)[C@H](NC(=O)[C@@H](C(C)C)N(C)C)C(C)C
P388/ADR
  GI50: 0.000425 µM (active)
P388
  GI50: 0.000425 µM (active)

## CCC(=O)NC(=S)Nc1cccc(NC(=O)c2ccccc2)c1
Prothrombin
  IC50: > 50 µM (not active)

## N#C/C(=C\c1ccc(F)cc1)c1nc(-c2ccco2)cs1
Protein skinhead-1
  IC50: > 100 µM (inactive)

## COc1ccc2c3c([nH]c2c1)[C@H](CO)N(Cc1ccccc1)CC31CCN(CC2CC2)CC1
[7]
  AC50: 2.62 µM (active)

## Clc1ccc(-c2nc3cc[nH]cc-3n2)cc1
[11]
  EC50: 10 µM (active)
Cells [1]
  IC50: > 29.9 µM (inactive)
[5]
  EC50: > 29.9 µM (inactive)
[12]
  EC50: 1 µM (active)
[6]
  IC50: > 29.9 µM (inactive)
Cells [2]
  EC50: > 29.9 µM (inactive)

## CN(C)c1ccc(C=c2c3ccccc3n3c2c2ccccc2[n+]3C)cc1
[3]
  IC50: > 80 µM (inactive)

## Cc1ccc(-c2nnc(SCC#CCOC(=O)c3ccco3)o2)cc1
Cells [13]
  IC50: 4.78 µM (active)

## NCCN1C(=O)S/C(=C\c2ccc3c(c2)OCO3)C1=O
[4]
  AC50: 22.3 µM (active)
[14]
  EC50: 1.48 µM (active)

## O=C(O)CCc1ccc(-c2ccccc2)n1NC(=O)c1ccco1
Protein skinhead-1
  IC50: > 100 µM (inactive)

## O=[N+]([O-])c1ccc(/C=C/c2ccc(/N=N/c3ccc(/C=C/c4ccc([N+](=O)[O-])cc4S(=O)(=O)O)c(S(=O)(=O)O)c3)cc2S(=O)(=O)O)c(S(=O)(=O)O)c1
P388/ADR
  GI50: > 100 µM (inactive)
P388
  GI50: > 100 µM (inactive)
SN12K1
  GI50: > 100 µM (inactive)

## CCS(=O)(=O)N1CC(=O)N2[C@H](CO)[C@@H](c3ccc(-c4ccccc4F)cc3)[C@@H]2C1
[7]
  AC50: 13.6 µM (active)

## COC1/C=C/O[C@@]2(C)Oc3c(C)c(O)c4c(O)c(cc(O)c4c3C2=O)NC(=O)/C(C)=C\C=C\[C@H](C)C(O)[C@@H](C)[C@@H](O)[C@@H](C)[C@H](OC(C)=O)[C@@H]1C (stereo partly specified)
P388/ADR
  GI50: 10.9 µM (inactive)
P388
  GI50: 5.41 µM (inactive)
SN12K1
  GI50: 15.2 µM (inactive)

## CCOc1ccccc1C(=O)Nc1nnc(SCC(=O)N2CCOCC2)s1
Prothrombin
  IC50: > 50 µM (not active)

## O=NN1C(c2ccccc2)C2CCCC(C2=O)C1c1ccccc1 (stereo unspecified)
P388/ADR
  GI50: 22.5 µM (inactive)
P388
  GI50: 36.3 µM (inactive)
SN12K1
  GI50: 26.5 µM (inactive)

## CCOC(=O)N[C@H](C(=O)N1CCC[C@H]1C(=O)NCCc1ccccc1Cl)C1CCCCC1
Cells [1]
  IC50: > 29.9 µM (inactive)
[5]
  EC50: 1.91 µM (active)
[6]
  IC50: 2.33 µM (active)
Cells [2]
  EC50: > 29.9 µM (inactive)

## CCCCCCCCCCCCCCCCCCOCC(COP(=O)([O-])OCC[N+](C)(C)C)OC (stereo unspecified) [EDELFOSINE]
P388/ADR
  GI50: 4.07 µM (inactive)
P388
  GI50: 2.65 µM (inactive)
SN12K1
  GI50: 11.2 µM (inactive)

## CSc1nc2c(ncn2C2OC(CO)C(O)C(O)C2O)c(=O)n1C (stereo unspecified)
P388/ADR
  GI50: > 10 µM (inactive)
P388
  GI50: > 100 µM (inactive)
SN12K1
  GI50: > 100 µM (inactive)
